Data reported in EP4003298B1 (Offhealth S.p.A., priority 2019, dated 2021).

Key:
[1] = system: reconstructed human epidermis; conditions: 24 h
Protocol: The assay included a prime MTT assay at the end of the incubation: cell survival assay using the reconstructed in vitro 3D artificial human epidermis to assess the cytotoxic potential of the sample.
The in vitro test systems used consist of an artificial three-dimensional system of the human epidermis. A reconstructed model of artificial human skin was prepared comprising normal human epidermal keratinocytes, which was grown as an integrated three-dimensional cell culture model, perfectly mimicking human skin in vitro.
The epidermis was pre-treated for 60 minutes with 0.25% SLS and was obtained in order to induce the synthesis and release of IL-1α. Later 30 µl of the formulation object of the invention was applied on two portions of the epidermis in two replicates, and the exposure was carried out for 24 hours at 37°C, 5% C02. […]
The epidermal units are treated with 1 mg of MD (3-4,5-dimethyl-thiazol-2-yl)-2,5-diphenyl-tetrazolium bromide) solution for 3 hours at 37°C. The solution is then removed and replaced with isopropanol, with a further 2 hours of incubation at room temperature; 2 aliquots of each sample are transferred to a 96-well plate for reading. The absorbance is read at the 570 nm wavelength with a colorimeter (Tecan Sunrise remote model) provided with a microplate reader. […]

IL-1α = IL-1α release ELISA on SLS-irritated reconstructed human epidermis; format: cell-based; conditions: positive control SLS 0.25% only
Protocol: The assay was performed in two replicates.
In this study IL-1α was determined in the culture medium of treated and untreated epidermis, using a direct ELIS assay (enzyme-linked immuno-absorbent assay). The colorimetric signal is directly proportional to the amount of cytokine in the culture medium. The samples are read at 450 nm. The detection limit is less than 10 pg/ml.
Cytokine concentration is determined using a standard curve. The inhibition of IL-1α release was determined as: % of IL-1α inhibition: 100−(pg/ml IL−1α released from irritated; samples/pg/ml IL−1α positive control)*100 [formula]

`CCCCCCCCCCCCOS(=O)(=O)[O-].[Na+]` [SLS, sodium lauryl sulfate] was tested, and the “% Average cell viability (ds)” value [1] was 65.79 (0.45) %, the IL-1α pg/ml average (IL-1α; 6h) was 79.17 pg/mL and the IL-1α pg/ml average (IL-1α; 24h) was 233.86 pg/mL.
